Results from patent US20140322348A1 (priority 2011, published 2014).

Legend:
[1] = test system: cucumber downy mildew; assay: Greenhouse trial against cucumber downy mildew, foliar sprays; conditions: rates TG 0.5%, potassium phosphite 0.4%
Experimental: Combinations of TTO (supplied as Timorex Gold®, 23.8% TTO) and a synthetic fungicidal composition (supplied Canon® 50 from Luxembourg Industries Ltd., Israel, containing 780 g potassium phosphite (equivalent to 500 g phosphorous acid) per liter) were tested against cucumber downy mildew. Greenhouse-grown plants were drip irrigated and fertilized according to known recommendations for this crop. Treatments were applied in a randomized complete block, with 5 replications per treatment. Plot size in each instance was of 7 m length, containing 14 plants. The TTO or potassium phosphite composition were diluted prior to use. Fungicidal treatment was applied using backpack sprayer equipped with a mist blower (STHIL 340) to spray a at a rate of 350 cc/dunam. Three foliar sprays were applied at 11-13 day intervals. Disease severity was evaluated by determining the leaf area covered with downy mildew (disease severity) on each of 20 leaves randomly selected per each replicate. […] To analyze the results, an arc-sin transformation was performed on the raw data, and analysis of variance (ANOVA) using the SAS GLM procedure was applied to the transformed data. The Tukey-Kramer Test was applied to determine whether differences between treatments were significant.

[2] = test system: grapevine downy mildew; assay: Vineyard trial against grapevine downy mildew, foliar sprays; conditions: seven days after third application, rates TG 0.3%, potassium phosphite 0.4%, Liquid Copper 0.25%; for % infected leaf area: grape "Superior"
Experimental: The Timorex Gold or synthetic fungicidal composition were diluted prior to use. At the outset, pre-harvest plants were moderately infected with downy mildew. The crops studied were drip irrigated and fertilized according to known recommendations. Treatments were applied in a randomized complete block, with 4 replications per treatment. Plot size in each instance was 8 m length. Fungicidal treatment was applied using backpack sprayer equipped with a mist blower (STHIL 340 with endpiece 3) to spray a volume of 100 liter/dunam (1000 liter/ha) Foliar sprays were applied on days 1, 10 and 17. The plants were inspected on day 1 (prior to spraying) and days 11, 18 and 24. At the beginning of the experiment, for each group, 5 plant extremities having single leafs were marked. The percent of coverage of downy mildew on a five square cm area was estimated before marking in order to estimate the efficacy in curing infection and after marking to estimate the efficacy in preventing infection. To analyze the results, an arc-sin transformation was performed on the raw data, and analysis of variance (ANOVA) using the SAS GLM procedure was applied to the transformed data. The Tukey-Kramer Test was applied to determine whether differences between treatments were significant.

Q: With potassium phosphite as the substance, how does the “Severity % infected leaf area” value ([1]; 11 days after third application) read?
A: Its value is 1.4%.

Q: What about the “Efficacy (%)” value ([1]; Incidence, seven days after third application) of the same substance?
A: The value was 74.4%.

Q: And the “Incidence % leaves infected” value ([1]; Seven days after third application)?
A: The value was 23.7%.

Q: And the “Efficacy (%)” value ([1]; Severity, 11 days after third application)?
A: The value was 92.1%.

Q: What about the “% infected leaf area” value ([2]; Curative) of the same substance?
A: Its value is 28.25%.

Q: What about the “Efficacy (%)” value ([2]; Curative) of the same substance?
A: The value was 25.2%.

Q: And the “% infected leaf area” value ([2]; Protectant)?
A: The value was 14%.

Q: And the “Efficacy (%)” value ([2]; Protectant)?
A: The value was 62.9%.
